Values joined by “and” are separate entries in the source; they are usually repeats but may differ in a detail not shown here. Equal values may be shown once.

For the test, the target named is T1, hS1P1 (Homo sapiens, UniProt P21453).
T1 construct: expressed in transfected cells
T1 sequence (P21453 whole entry): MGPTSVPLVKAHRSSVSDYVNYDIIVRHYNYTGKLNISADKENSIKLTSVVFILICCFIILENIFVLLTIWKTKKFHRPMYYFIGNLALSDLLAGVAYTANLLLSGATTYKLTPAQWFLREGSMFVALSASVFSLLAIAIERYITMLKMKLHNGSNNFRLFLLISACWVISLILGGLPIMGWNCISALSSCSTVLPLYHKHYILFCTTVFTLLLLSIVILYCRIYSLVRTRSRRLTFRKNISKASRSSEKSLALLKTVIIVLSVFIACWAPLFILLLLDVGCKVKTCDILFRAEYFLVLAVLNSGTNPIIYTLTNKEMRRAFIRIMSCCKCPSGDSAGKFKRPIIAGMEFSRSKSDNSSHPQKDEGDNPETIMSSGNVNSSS
The experiment in a line: hS1P1 EC50 (S1P receptor Ca2+ flux protocol, FLIPR, CHO K1 Gqi5 cells). It is filed as cell-based. The note with it: several values per compound = repeat determinations as printed. As to the method:
S1P receptor activity may also be measured by an SIP receptor (e.g., hS1P1, hS1P3, rS1P1, rS1P3 and parental cell) Ca^2+ Flux protocol as described below: • 1. Material • a. FLIPR buffer: 1x HBSS; 10mM HEPES • b. Cell growth media: • i. human and rat S1P1 and S1P3: F12-Ham's media; 10% FBS (qualified); 1x Pen/Strep/Glu; 300ug/mL Hygromycin; 400ug/mL Geneticin ii. Parental cell: human and rat S1P and S1P3: F12-Ham's media; 10% FBS (qualified); 1x Pen/Strep/Glu; 300ug/mL Hygromycin; • c. Cell seeding media; F12-Ham's media; 10% FBS (Charcoal/dextran stripped); 1x Pen/Strep/Glu; • d. Cell dissociation buffer: Versene from Invitrogen • e. Agonist (SIP) dissolving buffer: 0.4% (w/v) fatty-acid free BSA (Sigma # A8806) in FLIPR buffer • f. FLIPR dye: BD PBX Calcium assay kit; Cat#641077 is composed of Calcium indicator (Cat#850000) and 100x PBX signal enhancer (cat#850001). The 100x PBX signal enhancer is diluted into FLIPR buffer 1:100 and the calcium indicator is then added at 1:1000 ratio. • g. Cell plates (96-well): Greiner Cat#655090 • h. Compound plates (96-well): Costar #3365 • i. S1P stock solution preparation: S1P is purchased from CalBioChem (Catalog # 970471; 1mg vial; custom prep using methanol, & nitrogen gas drying inside glass vial; Storage @ -20°C). Dissolve 1 vial of SIP into 26.4ml of agonist dissolving buffer in a 50ml centrifuge tube; Remove label from bottle of SIP, open and drop entire bottle into tube. Sonicate at 37° for ½ hour. Clear solution of 100µM will result. This stock solution is aliquoted and stored at -80C • 2. Cell line maintenance • a. V5 tags were added at the N-terminus of hS1P1, hS1P3, rS1P1 and rS1P3. All four genes were transfected into CHO K1 cells which stably express Gqi5. • b. hS1P1 and hS1P3 were established as stable clones and rS1P1 and rS1P3 were sorted by anti V5 tag and established as stable pools after sorting. • c. Parental cell line CHO/K1 Gqi5 is used as the control. • d. All the cells are maintained in cell growth media and splitted twice a week using Versene. • e. All the cell lines are used under passage 30. • 3. Assay protocol • a. Cell seeding: Cells are lifted from the flask by Versene and seeded in cell plates at 50K/well in cell seeding media. Cells are grown overnight at 37 degree. • b. Cell loading: Cell seeding media is discarded. Cells are loaded with 50ul of FLIPR dye at RT for 90 min. Signal is stable for up to 5 h after dye loading. • c. Agonist (S1P) preparation: Frozen stock of S1P is thawed out and sonicated at 37c for 30 minutes every time before use. The stock is then diluted into FLIPR buffer at proper concentration. • d. Compound preparation: Compounds are dissolved in DMSO. A 3x, 10 point dilution of the compounds are carried out in DMSO. Then the compounds are diluted into assay buffer133x so that the DMSO concentration is 0.75%. • e. Activity measurement: The fluorescence signal change of the cells upon compound addition is monitored in FLIPRtetra. 25ul of compound is transferred into the cell plates (50ul of FLIPR dye; DMSO concentration: 0.25%). Signal is recorded for 90sec after compound addition. Then 50ul of 500nM SIP is added in the cell plate, and signal is recorded for 90 seconds upon addition. • 4. Data analysis • a. Peak value is calculated for each compound/S1P addition • b. The peak value of S1P at 200nM is used as high control (100%), and the peak value of buffer only is used as low control (0%). • c. Data is normalized against high and low controls using the following equation: POC_S = 100*(RAW-LO)/(HI-LO) [formula] • d. Peak value is plotted against the concentration of compound. • e. Curve is fitted using the 4 parameter fit: Y = (A+(B/(1+(((x/C))^(∧)D)))) [formula] where: Y is POC_S (or POC) • X is compound concentration • A is the minimum (EC50min or IC50min) • B is the maxmum (EC50max or IC50max) • C is the inflection point (EC50IP or IC50IP) • D is the hill slope (EC50 slope or IC50 slope).
For orientation: Calcium assays in cells follow changes in intracellular calcium, usually with a dye or a luminescent sensor.
In the case of `O=C(O)C1CN(Cc2ccc(-c3cc4cc(C5CCCCC5)ccc4o3)c(F)c2)C1` [Reference Compound 27], the EC50 is 160 nM and 361 nM.

Consider `O=C(O)C1CN(Cc2ccc(-c3cc4cc(-c5cccs5)ccc4o3)cc2)C1` [Reference Compound 28, 1-((4-(5-(thiophen-2-yl)benzofuran-2-yl)phenyl)methyl)azetidine-3-carboxylic acid], for which the EC50 was found to be 1800 nM. Then `O=C(O)CCN1CCc2cc(-c3cc4cc(Cc5ccccc5)ccc4o3)ccc2C1` [Reference Compound 29, 3-(6-(5-benzylbenzofuran-2-yl)-3,4-dihydroisoquinolin-2(1H)-yl)propanoic acid], with 160 nM and 261 nM; and `O=C(O)C1CN(Cc2ccc(-c3cc4cc(C5CCCC5)ccc4o3)cc2)C1` [Reference Compound 30, 1-(4-(5-cyclopentylbenzofuran-2-yl)benzyl)azetidine-3-carboxylic acid], with 210 nM. Next, `O=C(O)C1CN(Cc2ccc(-c3cc4cc(N5CCCCC5)ccc4o3)c(F)c2)C1` [Reference Compound 31, 1-(3-fluoro-4-(5-(piperidin-1-yl)benzofuran-2-yl)benzyl)azetidine-3-carboxylic acid]: 860 nM and 307 nM; `O=C(O)C1CN(Cc2ccc(-c3cc4cc(Cc5ccccc5)ccc4o3)nc2)C1` [Reference Compound 32, 1-((6-(5-benzylbenzofuran-2-yl)pyridin-3-yl)methyl)azetidine-3-carboxylic acid]: 2600 nM and 516 nM. Then `COc1cc(CN2CC(C(=O)O)C2)ccc1-c1cc2cc(Cc3ccccc3)ccc2o1` [Reference Compound 33, 1-((4-(5-benzylbenzofuran-2-yl)-3-methoxyphenyl)methyl)azetidine-3-carboxylic acid], with 1000 nM and 1900 nM and 196 nM; and `O=C(O)C1CN(Cc2ccc(-c3cc4cc(N5CCCCC5)ccc4o3)cc2)C1` [Reference Compound 34, 1-(4-(5-(piperidin-1-yl)benzofuran-2-yl)benzyl)azetidine-3-carboxylic acid], with 1500 nM; and `O=C(O)C1CN(Cc2ccc(-c3cc4cc(Cc5ccccc5)ccc4o3)c(Cl)c2)C1` [Reference Compound 36, 1-((4-(5-benzylbenzofuran-2-yl)-3-chlorophenyl)methyl)azetidine-3-carboxylic acid], with 199 nM. `O=C(O)CCN1CCc2cc(-c3cc4cc(C5CCCC5)ccc4o3)ccc2C1` [Reference Compound 37, 3-(6-(5-cyclopentylbenzofuran-2-yl)-3,4-dihydroisoquinolin-2(1H)-yl)propanoic acid] had an EC50 of 4170 nM. As to `O=C(O)C1CN(Cc2ccc(-c3cc4cc(OCC5CCCC5)ccc4o3)c(F)c2)C1` [Reference Compound 38, 1-(4-(5-(cyclopentylmethoxy)benzofuran-2-yl)-3-fluorobenzyl)azetidine-3-carboxylic acid], the EC50 turned out to be 803 nM.

The compound `Cc1cc(CN2CC(C(=O)O)C2)ccc1-c1cc2cc(Cc3ccccc3)ccc2o1` [Reference Compound 43, 1-((4-(5-Benzylbenzofuran-2-yl)-3-methylphenyl)methyl)azetidine-3-carboxylic acid] registered a concentration giving a half-maximal response (EC50) of 241 nM.

Consider `CCCCOc1ccc2oc(-c3ccc4c(c3)CCN(CCC(=O)O)C4)cc2c1` [Reference Compound 44, 3-(6-(5-butoxybenzofuran-2-yl)-3,4-dihydroisoquinolin-2(1H)-yl)propanoic acid], for which a half-maximal response (EC50) required 4440 nM.

`O=C(O)CCNC1Cc2ccc(-c3cc4cc(Cc5ccccc5)ccc4o3)cc2C1` (stereo not drawn) [Reference Compound 45, 3-(5-(5-benzylbenzofuran-2-yl)-2,3-dihydro-1H-inden-2-ylamino)-propanoic acid] had an EC50 of 807 nM. Then `COc1cc(CN2CC(C(=O)O)C2)ccc1-c1cc2cc(C3CCCC3)ccc2o1` [Reference Compound 47, 1-((4-(5-cyclopentylbenzofuran-2-yl)-3-methoxyphenyl)methyl)azetidine-3-carboxylic acid], with 1070 nM; and `O=C(O)C1CN(Cc2cc(F)c(-c3cc4cc(Cc5ccccc5)ccc4o3)c(F)c2)C1` [Reference Compound 48, 1-((4-(5-Benzylbenzofuran-2-yl)-3,5-difluorophenyl)methyl)azetidine-3-carboxylic acid], with 89 nM; and `O=C(O)C1CN(Cc2ccc(-c3cc4cc(OCC5CC5)ccc4o3)c(F)c2)C1` [Reference Compound 49], with 109 nM. Next, `CCCCOc1ccc2oc(-c3ccc(CN4CC(C(=O)O)C4)cc3Cl)cc2c1` [Reference Compound 50, 1-((4-(5-Butoxybenzofuran-2-yl)-3-chlorophenyl)methyl)azetidine-3-carboxylic acid]: 266 nM; `O=C(O)C1CN(Cc2ccc(-c3cc4cc(C5CCCC5)ccc4o3)c(Cl)c2)C1` [Reference Compound 51, 1-((3-chloro-4-(5-cyclopentylbenzofuran-2-yl)phenyl)methyl)azetidine-3-carboxylic acid]: 558 nM; `O=C(O)C1CN(Cc2ccc(-c3cc4cc(N5CCOCC5)ccc4o3)c(F)c2)C1` [Reference Compound 53, 1-((3-fluoro-4-(5-morpholinobenzofuran-2-yl)phenyl)methyl)azetidine-3-carboxylic acid]: 2090 nM.

As to `O=C(O)C1CN(Cc2ccc(-c3cc4cc(Cc5ccccc5)ccc4o3)c(F)c2)CCO1` (stereo not drawn) [Reference Compound 54, 4-((4-(5-benzylbenzofuran-2-yl)-3-fluorophenyl)methyl)morpholine-2-carboxylic acid], the EC50 came out at 1860 nM. Then `O=C(O)C1CN(Cc2ccc(-c3cc4cc(OCC5CCCC5)ccc4o3)c(F)c2)CCO1` (stereo not drawn) [Reference Compound 55, 4-((4-(5-(cyclopentylmethoxy)benzofuran-2-yl)-3-fluorophenyl)methyl)morpholine-2-carboxylic acid], with above 25000 nM; and `O=C(O)CCN1CCc2cc(-c3cc4cc(OCC5CCCC5)ccc4o3)ccc2C1` [Reference Compound 57, 3-(6-(5-(cyclopentylmethoxy)benzofuran-2-yl)-3,4-dihydroisoquinolin.2(1H)-yl)propanoic acid], with 877 nM; and `O=C(O)CCNCc1ccc(-c2cc3cc(C4CCCC4)ccc3o2)c(F)c1` [Reference Compound 58, 3-(4-(5-cyclopentylbenzofuran-2-yl)-3-fluorobenzylamino)propanoic acid], with 1070 nM. On to `O=C(O)C1CN(Cc2ccc(-c3cc4cc(C5CCOCC5)ccc4o3)c(F)c2)C1` [Reference Compound 61], for which the EC50 was determined as 207 nM.

Compound `O=C(O)[C@@H]1CCCN(Cc2ccc(-c3cc4cc(Cc5ccccc5)ccc4o3)c(F)c2)C1` [Reference Compound 62, (3R)-1-((4-(5-Benzylbenzofuran-2-yl)-3-fluorophenyl)methyl)piperidine-3-carboxylic acid] had an EC50 of 5450 nM. Compound `O=C(O)[C@H]1CCCN(Cc2ccc(-c3cc4cc(Cc5ccccc5)ccc4o3)c(F)c2)C1` [Reference Compound 63, (3S)-1-((4-(5-Benzylbenzofuran-2-yl)-3-fluorophenyl)methyl)piperidine-3-carboxylic acid] displayed an EC50 of 3340 nM.

For orientation: EC50 means the concentration needed to bring the measured effect to its halfway point. A low value points to higher potency in that assay.
